Results taken from US9365556B2, “3,5-diaminopyrazole kinase inhibitors” (Axikin Pharmaceuticals, Inc., priority 2012, dated 2016).

Experiments:
[1] = target: T1, kinase domain protein of RC kinase (Homo sapiens, UniProt Q56UN5); assay: Enzymatic assay for kinase inhibitory activity (Crebtide substrate, LANCE read-out); type: biochemical; settings: compound at 1 μM
T1 sequence (Q56UN5 1061-1324 limits assumed): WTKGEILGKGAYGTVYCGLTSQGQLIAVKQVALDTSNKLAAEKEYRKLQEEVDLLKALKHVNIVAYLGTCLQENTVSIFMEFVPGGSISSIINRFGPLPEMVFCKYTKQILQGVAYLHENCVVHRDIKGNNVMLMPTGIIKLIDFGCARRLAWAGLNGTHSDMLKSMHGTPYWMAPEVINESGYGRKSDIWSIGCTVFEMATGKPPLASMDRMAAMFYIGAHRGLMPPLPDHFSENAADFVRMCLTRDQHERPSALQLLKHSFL
Description: Solutions of a test compound, Crebtide (a substrate), a kinase, and ATP were prepared using 1×MAPK Buffer (50 mM HEPES, 1 mM EGTA, […], 10 mM MgCl2, 2 mM DTT, and 0.01% Tween 20).
To each well, the test compound (1 μL) was first added (in duplicate) to reach a final concentration of 1 μM or 1×IC50 of the compound. The kinase (5 μl) was then added to each well to reach a final concentration of […] for the kinase domain or […] for the full-length domain. Each plate included a positive and negative controls in duplicate wells. Crebtide (2.5 μL) was then added to each well in duplicate to reach a final concentration of 50 nM. If the full-length kinase was used, the plates were incubated for 45 min at room temperature before proceeding further. ATP (2.5 μL) was added to each well to reach a final concentration of 1 μM for the kinase domain and 3 μM for the full-length.
After the addition of ATP, the plates were incubated for 45 min at room temperature. During the incubation, an EDTA solution (40 mM) and anti-Crebtide ([…]) were prepared. Additionally, a detection buffer stock solution was diluted ten fold before use.
After the incubation, the anti-Crebtide (5 μL) and EDTA (5 μL) were added to each well to reach their final concentrations of […] and 10 mM, respectively. The plates were allowed to develop at room temperature for 45 min. The plates were then read at 665 nm and 615 nm using Perkin Elmer Lance machine.
The biological results of inhibition of the kinase domain protein of RC kinase are summarized in Tables 2 and 3, wherein A represents at least 50% inhibition of the RC kinase activity at 1 μM; B represents no greater than 50% but at least 20% inhibition of the RC kinase activity at 1 μM; C represents no greater than 20% but at least 5% inhibition of the RC kinase activity at 1 μM; and D represents no greater than 5% inhibition of the RC kinase activity at 1 μM.

Structure (SMILES) | inhibition at 1 µM [1] [%] | melting point [°C] | Activity (inhibition of the RC kinase activity) [1] | Activity (inhibition of the RC kinase activity) ([1]; 1 µM)
COc1cc(/C=N/c2[nH]nc(Nc3cccc(Cl)c3)c2C#N)ccc1OCc1cnc(Cl)s1 [Compound A60] | 5 to 20 | 210 to 220 | – | –
N#Cc1c(Nc2cccc(Cl)c2)n[nH]c1/N=C/c1cncc(N2CCCC2)c1 [Compound A86] | ≤ 5 | 305 to 309 | – | –
N#Cc1c(Nc2ccccc2)n[nH]c1/N=C/c1cc(F)cc2c1OCOC2 [Compound A30] | 5 to 20 | 247 to 251 | – | –
NC(=O)c1c(Nc2cccc(Cl)c2)n[nH]c1/N=C/c1ccc(O)cc1O [Compound B30] | ≥ 50 | 220 to 225 | – | –
N#Cc1c(Nc2cccc(Cl)c2)n[nH]c1/N=C/c1ccc(O)cc1 [Compound A20] | ≤ 5 | 242 to 245 | – | –
N#Cc1c(Nc2cccc(Cl)c2)n[nH]c1/N=C/c1ccccc1-c1cccs1 [Compound A81] | 5 to 20 | 75 to 80 | – | –
COc1ccccc1/C=N/c1[nH]nc(Nc2ccc(Cl)cc2)c1C#N [Compound A38] | ≤ 5 | 262 to 265 | – | –
Cn1nc(CSc2ccccc2)c(/C=N/c2[nH]nc(Nc3cccc(Cl)c3)c2C#N)c1Cl [Compound A62] | 5 to 20 | 194 to 202 | – | –
NC(=O)c1c(Nc2cccc(Cl)c2)n[nH]c1/N=C/c1c[nH]cn1 [Compound B19] | 20 to 50 | 265 to 267 | – | –
N#Cc1c(Nc2cccc(Cl)c2)n[nH]c1/N=C/c1ccc(Oc2ccc(C(F)(F)F)cn2)cc1 [Compound A112] | – | 268 to 270 | C (no greater than 20% but at least 5% inhibition of the RC kinase activity at 1 μM) | –
Cc1cc(F)ccc1/C=N/c1[nH]nc(Nc2cccc(Cl)c2)c1C#N [Compound A99] | 5 to 20 | 253 to 257 | – | –
N#Cc1c(Nc2cccc(Cl)c2)n[nH]c1/N=C/c1ccc(N2CCOCC2)nc1 [Compound A79] | ≤ 5 | 273 to 279 | – | –
N#Cc1c(Nc2cccc(Cl)c2)n[nH]c1/N=C/c1cc(F)cc2c1OCOC2 [Compound A29, 3-((3-chlorophenyl)amino)-5-(((6-fluoro-4H-benzo[d][1,3]dioxin-8-yl)methylene)amino)-1H-pyrazole-4-carbonitrile] | 5 to 20 | 248 to 251 | – | –
N#Cc1c(Nc2cccc(Cl)c2)n[nH]c1/N=C/c1ccc(Cl)cc1Cl [Compound A4] | ≤ 5 | 277 to 281 | – | –
N#Cc1c(Nc2cccc(Cl)c2)n[nH]c1/N=C/c1ccc(OCCO)cc1 [Compound A88] | 5 to 20 | 229 to 232 | – | –
COc1ccc(/C=N/c2[nH]nc(Nc3cccc(Cl)c3)c2C#N)cn1 [Compound A100] | 5 to 20 | 286 to 291 | – | –
N#Cc1c(Nc2ccc(Cl)cc2)n[nH]c1/N=C/c1cccc2ccccc12 [Compound A40] | ≤ 5 | 289 to 292 | – | –
NC(=O)c1c(Nc2cccc(Cl)c2)n[nH]c1/N=C/c1cc(F)c(O)c(F)c1 [Compound B86, 3-((3-chlorophenyl)amino)-5-((3,5-difluoro-4-hydroxybenzylidene)amino)-1H-pyrazole-4-carboxamide] | ≥ 50 | – | – | –
N#Cc1c(Nc2cccc(Cl)c2)n[nH]c1/N=C/c1cnc(N)s1 [Compound B99] | – | – | – | A (at least 50% inhibition of the RC kinase activity at 1 μM)
Cc1ncsc1/C=N/c1[nH]nc(Nc2cccc(Cl)c2)c1C(N)=O [Compound B62, 3-((3-chlorophenyl)amino)-5-(((4-methylthiazol-5-yl)methylene)amino)-1H-pyrazole-4-carboxamide] | ≥ 50 | – | – | –
N#Cc1c(Nc2cccc(Cl)c2)n[nH]c1/N=C/c1ccc(-c2ccc(Cl)cc2)o1 [Compound A73] | – | – | C (no greater than 20% but at least 5% inhibition of the RC kinase activity at 1 μM) | –
COc1cc(/C=N/c2[nH]nc(Nc3cccc(Cl)c3)c2C(N)=O)cc(O)c1OC [Compound B74] | 5 to 20 | – | – | –
NC(=O)c1c(Nc2ccccc2Cl)n[nH]c1/N=C/c1cc(O)ccc1[N+](=O)[O-] [Compound B116] | – | – | C (no greater than 20% but at least 5% inhibition of the RC kinase activity at 1 μM) | –
NC(=O)c1c(Nc2cccc(Cl)c2)n[nH]c1/N=C/c1c[nH]nc1-c1ccc(F)cc1 [Compound B98] | – | – | C (no greater than 20% but at least 5% inhibition of the RC kinase activity at 1 μM) | –
COc1cccc(/C=N/c2[nH]nc(Nc3cccc(Cl)c3)c2C#N)c1 [Compound A24] | – | – | D (no greater than 5% inhibition of the RC kinase activity at 1 μM) | –
NC(=O)c1c(Nc2cccc(Cl)c2)n[nH]c1/N=C/c1ccc(CO)o1 [Compound B84, 3-((3-chlorophenyl)amino)-5-(((5-(hydroxymethyl)furan-2-yl)methylene)amino)-1H-pyrazole-4-carboxamide] | ≥ 50 | – | – | –

Now from value to molecule, other results behind:

inhibition at 1 µM [1] [%] | melting point [°C] | Structure (SMILES) | Activity (inhibition of the RC kinase activity) [1] | Activity (inhibition of the RC kinase activity) ([1]; 1 µM)
≥ 50 | 243 to 246 | NC(=O)c1c(Nc2ccc(Cl)cc2)n[nH]c1/N=C/c1ccc(O)cc1O [Compound B36] | – | –
20 to 50 | 295 to 298 | COc1ccc(/C=N/c2[nH]nc(Nc3cccc(Cl)c3)c2C(N)=O)cc1 [Compound B122] | – | –
20 to 50 | 294 to 296 | NC(=O)c1c(Nc2ccccc2Cl)n[nH]c1/N=C/c1ccc([N+](=O)[O-])c(O)c1 [Compound B114] | – | –
≤ 5 | 279 to 283 | COc1cccc(/C=N/c2[nH]nc(Nc3ccc(Cl)cc3)c2C(N)=O)c1 [Compound B33] | – | –
≤ 5 | 270 to 273 | COc1ccccc1/C=N/c1[nH]nc(Nc2ccc(Cl)cc2)c1C(N)=O [Compound B34] | – | –
≤ 5 | 242 to 248 | COc1ccc(Nc2n[nH]c(/N=C/c3ccc([N+](=O)[O-])cc3)c2C#N)cc1 [Compound A46] | – | –
≤ 5 | 246 to 250 | COc1ccc(/C=N/c2[nH]nc(Nc3ccc(OC)cc3)c2C#N)cc1 [Compound A43] | – | –
5 to 20 | 290 to 294 | N#Cc1c(Nc2ccccc2)n[nH]c1/N=C/c1ccc([N+](=O)[O-])cc1 [Compound A19] | – | –
≤ 5 | 290 to 296 | NC(=O)c1c(Nc2ccc(Cl)cc2)n[nH]c1/N=C/c1cccc2ccccc12 [Compound B25] | – | –
5 to 20 | 301 to 304 | NC(=O)c1c(Nc2ccccc2Cl)n[nH]c1/N=C/c1ccc(O)c([N+](=O)[O-])c1 [Compound B113] | – | –
5 to 20 | 193 to 197 | COc1ccc(Nc2n[nH]c(/N=C/c3ccc(O)cc3)c2C#N)cc1 [Compound A54] | – | –
20 to 50 | 257 to 260 | COc1ccc(/C=N/c2[nH]nc(Nc3ccccc3)c2C(N)=O)cc1 [Compound B13] | – | –
≥ 50 | 268 to 270 | COc1cc(/C=N/c2[nH]nc(Nc3cccc(Cl)c3)c2C(N)=O)ccc1O [Compound B7] | – | –
20 to 50 | – | NC(=O)c1c(Nc2cccc(Cl)c2)n[nH]c1/N=C/c1ccc([N+](=O)[O-])c(O)c1 [Compound B45] | – | –
